# Laboratory results: US20230277602A1, “COMBINATION THERAPY FOR TREATING OR PREVENTING CANCER” (4D Pharma Research Limited, priority 2018, published 2023)
# Test system: immature dendritic cells
# Test: Cytokine production in immature dendritic cells
# Assay type: cell-based
# Details: MRX518 10^7/ml, LPS 100 ng/ml, compared to the negative control, FIGS. 4a-d
# Experimental: A monocyte population was isolated from peripheral blood mononuclear cells (PBMCs). The monocyte cells were subsequently differentiated into immature dendritic cells. The immature dendritic cells were plated out at 200,000 cells/well and incubated with MRX518 at a final concentration of 10^7/ml, with the optional addition of LPS at a final concentration of 100 ng/ml. The negative control involved incubating the cells with RPMI media alone and positive controls incubated the cells with LPS at a final concentration of 100 ng/ml. The cytokine content of the cells was then analysed.
substance,measurement,value
lipopolysaccharide [LPS],level of IL-6,increase
same,level of TNF-α,increase
